Consider three compounds from patent US20250032464A1, “SOLID DISPERSION, PREPARATION METHOD THEREFOR, AND SOLID FORMULATION CONTAINING SAME” (HAIHE BIOPHARMA CO., LTD., priority 2021, published 2025).

Data set [1] can be described thus: in vitro. The conditions noted are these: human, Caco-2.
Data set [2] has as its system P-gp. Description: in vitro. The conditions noted are these: human, Caco-2.
For data set [3] the following is noted: for Equilibrium solubility, 24 h: 37° C.
In data set [4] the test system is Caco-2 cell model. The following applies: for The ratio of apparent permeability: human.

Like-named read-outs stand apart in the source and are kept apart here.

The term Papp A→B denotes how fast a substance crosses the layer from the apical side. As a reminder, the Papp B→A is how fast a substance crosses the layer from the basolateral side. For orientation: efflux ratio means the permeability from basolateral to apical divided by that in the opposite direction, in the common usage. In data set [1], `CC(C)NCC(O)COc1cccc2ccccc12` (centres unmarked) [Propranolol, propranolol] came in with an apparent permeability from apical to basolateral (Papp A→B) of 13.7 ± 0.67 ×10⁻⁶ cm/s and a Papp B→A of 17 ± 0.32 ×10⁻⁶ cm/s. Also, in data set [2], the efflux ratio came to 1.24.
The term bioavailability denotes the share of a dose that reaches the circulation, judged against a reference dose that is usually intravenous. Higher therefore signals good availability. As for `Cn1cc(-c2cnc3cnn(S(=O)(=O)c4cnc5ccc(-c6cnn(C)c6)cn45)c3c2)cn1` [Compound A, 1-{(6-[(1-methyl)-4-pyrazolyl]-imidazo[1,2-a]pyridine)-3-sulfonyl}-6-[(1-methyl)-4-pyrazolyl]-1-hydro-pyrazolo[4,3-b]pyridine], the “Equilibrium solubility, 24 h” value is 0.1 µg/mL in data set [3] (Water), 0.5 µg/mL in data set [3] (pH 1.2 simulated gastric fluid), 0.1 µg/mL in data set [3] (pH 4.5 phosphate buffer solution) and 0.1 µg/mL in data set [3] (pH 6.8 simulated intestinal fluid). Moreover, the solubility entry in data set [3] (media with different pH values) is reported as “less than 1 μg/mL”. Further, where the note is “after direct administration”, the in vivo bioavailability entry was “less than 1%”. This compound also gave a bioavailability (micronized compound A) of 3.3%. Moreover, the permeability characteristic result in data set [4] (Caco-2) is reported as “high permeability characteristic”. Also, the “The ratio of apparent permeability” value in data set [4] (Caco-2, 2 μM) worked out at 1.21; in data set [4] (Caco-2, 10 μM), 2.27; in data set [4] (Caco-2, 50 μM), 0.64.
In data set [1], `C[C@H]1O[C@@H](O[C@H]2[C@@H](O)C[C@H](O[C@H]3[C@@H](O)C[C@H](O[C@H]4CC[C@@]5(C)[C@H](CC[C@@H]6[C@@H]5C[C@@H](O)[C@]5(C)[C@@H](C7=CC(=O)OC7)CC[C@]65O)C4)O[C@@H]3C)O[C@@H]2C)C[C@H](O)[C@@H]1O` [Digoxin, digoxin] had a Papp A→B of 0.08 ± 0.01 ×10⁻⁶ cm/s and a Papp B→A of 12.5 ± 0.9 ×10⁻⁶ cm/s. The efflux ratio in data set [2] is 165.
